# Results as given in patent US10532986B2, “Cyclic compound acting as PDE4 inhibitor” (MEDSHINE DISCOVERY INC., priority 2016, dated 2020).
# Target: T1, Recombinant human PDE4B (Homo sapiens, UniProt Q07343)
# T1 construct: amino acid 305-end; GST (N); made in house; host or cells: Sf9 insect cells (baculovirus)
# Assay: Inhibitory activity of the compounds against PDE 4B (fluorescence polarization, Transcreener AMP2/GMP2)
# Type: biochemical
# Conditions: recombinant human PDE4B (aa 305-end, GST tag); 1 μM cAMP; 1 hour at room temperature
# Procedure: Inhibitory activity of the compounds against PDE 4B
# The assay is based on the fluorescence polarization measuring AMP/GMP production as a result of the enzyme activity by displacement of Tracer binding to the AMP/GMP antibody.
# 10 mM Tris-HCl (pH 7.5), 5 mM MgCl2, 0.01% Brij 35, 1 mM DTT and 1% DMSO.
# Recombinant human PDE4B (Gene accession number: NM_002600; amino acid 305-end) was expressed by baculovirus in Sf9 insect cells using an N-terminal GST tag. MW=78 kDa.
# Transcreener® AMP^2/GMP^2 antibody and AMP^2/GMP^2 AlexaFluor 633 tracer
# i) Recombinant human PDE4B and the enzyme substrate (1 μM cAMP) were dissolved in the newly-prepared buffer solution, respectively.
# ii) The PDE4B buffer solution defined as above was transferred into the reaction wells.
# iii) The compound which was dissolved in 100% DMSO was added to the reaction wells of the PDE4B buffer solution by Acoustic technology (Echo550; nanoliter range) and incubated at room temperature for 10 minutes.
# iv) The enzymatic buffer solution was then added to the reaction wells defined as above to initiate the reaction.
# v) The reaction was incubated at room temperature for 1 hour.
# vi) The reaction was terminated by adding detecting mixture (Transcreener® AMP^2/GMP^2 antibody and AMP^2/GMP^2 AlexaFluor 633 tracer) and incubated for 90 minutes with gentle mixing. The measurement range of fluorescence polarization is Ex/Em=620/688.
# The fluorescence polarization signal was converted into nM based on the AMP/GMP standard curve and the percent enzyme activity relative to DMSO calculated by Excel. GraphPad Prism was used to plot the curves (Drawing Medicine Icon)
# T1 sequence (Q07343 305-736 limits assumed): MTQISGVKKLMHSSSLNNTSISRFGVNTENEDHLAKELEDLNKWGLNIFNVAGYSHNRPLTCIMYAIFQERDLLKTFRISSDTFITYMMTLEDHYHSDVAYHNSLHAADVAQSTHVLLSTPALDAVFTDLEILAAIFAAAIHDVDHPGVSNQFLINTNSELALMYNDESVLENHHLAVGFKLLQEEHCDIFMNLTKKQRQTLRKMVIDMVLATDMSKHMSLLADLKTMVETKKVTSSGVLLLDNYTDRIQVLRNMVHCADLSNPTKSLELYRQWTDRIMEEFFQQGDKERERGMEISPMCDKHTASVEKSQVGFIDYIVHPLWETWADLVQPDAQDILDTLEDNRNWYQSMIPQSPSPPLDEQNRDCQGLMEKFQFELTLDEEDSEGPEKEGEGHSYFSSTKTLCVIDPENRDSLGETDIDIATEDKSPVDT
row,Compound,IC50 [nM]
1,CCOc1cc([C@@H](CS(C)(=O)=O)n2c(=O)[nH]c3c(C(C)=O)cccc32)ccc1OC [WX086],36.2
2,CCOc1cc([C@@H](CS(C)(=O)=O)n2c(=O)[nH]c3ccccc32)ccc1OC [WX010],19.5
3,CCOc1cc([C@@H](CS(C)(=O)=O)n2c(=O)[nH]c3cc(C(F)(F)F)ccc32)ccc1OC [WX002],6.27
4,CCOC(=O)c1cccc2c1[nH]c(=O)n2[C@H](CS(C)(=O)=O)c1ccc(OC)c(OCC)c1 [WX098],18.1
5,CCOc1cc([C@@H](CS(C)(=O)=O)n2c(=O)[nH]c3c(C4CCOCC4)cccc32)ccc1OC [WX081],1.38
6,CCOc1cc([C@@H](CS(C)(=O)=O)n2c(=O)[nH]c3c(Cl)cccc32)ccc1OC [WX008],22.3
7,CCOc1cc([C@@H](CS(C)(=O)=O)n2c(=O)n(CCO)c3cc(Cl)ccc32)ccc1OC [WX043],4.5
8,CCOc1cc([C@@H](CS(C)(=O)=O)n2c(=O)[nH]c3cc(-c4ccccc4C)ccc32)ccc1OC [WX014],0.606
9,CCOc1cc([C@@H](CS(C)(=O)=O)n2c(=O)[nH]c3c(-c4nccs4)cccc32)ccc1OC [WX095],6.58
10,CCOc1cc([C@@H](CS(C)(=O)=O)n2c(=O)[nH]c3cc(-c4nnccc4C)ccc32)ccc1OC [WX027],17.8
11,CCOc1cc([C@@H](CS(C)(=O)=O)n2c(=O)[nH]c3c(-c4ncccc4F)cccc32)ccc1OC [WX097],5.04
12,CCOc1cc([C@@H](CS(C)(=O)=O)n2c(=O)[nH]c3c(-c4ccc(F)cc4)cccc32)ccc1OC [WX089],2.52
13,CCOc1cc([C@@H](CS(C)(=O)=O)n2c(=O)[nH]c3cc(-c4ccccc4C(C)C)ccc32)ccc1OC [WX018],< 0.5
14,CCOc1cc([C@@H](CS(C)(=O)=O)n2c(=O)n(Cc3ccc(F)cc3)c3cc(Br)ccc32)ccc1OC [WX066],1.54
15,CCOc1cc([C@@H](CS(C)(=O)=O)n2c(=O)n(CC#N)c3cc(F)ccc32)ccc1OC [WX049],11.4
16,CCOc1cc([C@@H](CS(C)(=O)=O)n2c(=O)n(CCOC)c3cc(Cl)ccc32)ccc1OC [WX042],6.83
17,CCOc1cc([C@@H](CS(C)(=O)=O)n2c(=O)[nH]c3c(-c4ccccc4)cccc32)ccc1OC [WX090],0.341
18,CCOc1cc([C@@H](CS(C)(=O)=O)n2c(=O)n(CC)c3cc(Cl)ccc32)ccc1OC [WX039],9.96
19,CCOc1cc([C@@H](CS(C)(=O)=O)n2c(=O)[nH]c3cc(-c4ccccc4Cl)ccc32)ccc1OC [WX015],0.676
20,CCOc1cc([C@@H](CS(C)(=O)=O)n2c(=O)n(Cc3ccccc3F)c3ccccc32)ccc1OC [WX067],10.1
21,CCOc1cc([C@@H](CS(C)(=O)=O)n2c(=O)n(CCO)c3cc(F)ccc32)ccc1OC [WX050],30.6
22,CCOc1cc([C@@H](CS(C)(=O)=O)n2c(=O)n(Cc3ccccc3F)c3cc(C(F)(F)F)cc(F)c32)ccc1OC [WX060],34.4
23,CCOc1cc([C@@H](CS(C)(=O)=O)n2c(=O)[nH]c3c(-c4ccccc4F)cccc32)ccc1OC [WX087],1.29

row,Compound,IC50 [nM]
1,CCOc1cc([C@@H](CS(C)(=O)=O)n2c(=O)n(CC(F)(F)F)c3cc(Cl)ccc32)ccc1OC [WX037],10.8
2,CCOc1cc([C@@H](CS(C)(=O)=O)n2c(=O)[nH]c3cc(Br)ccc32)ccc1OC [WX009],6.29
3,CCOc1cc([C@@H](CS(C)(=O)=O)n2c(=O)[nH]c3c(C(=O)N4CCCC4)cccc32)ccc1OC [WX085],5.64
4,CCOc1cc(C(CS(C)(=O)=O)n2c(=O)[nH]c3cc(-c4ccccc4F)ccc32)ccc1OC(F)F (stereo not shown) [WX075],0.68
5,CCOc1cc([C@@H](CS(C)(=O)=O)n2c(=O)n(C)c3cc(Cl)ccc32)ccc1OC [WX038],7.99
6,CCOc1cc([C@@H](CS(C)(=O)=O)n2c(=O)n(CC(F)(F)F)c3cc(C(F)(F)F)ccc32)ccc1OC [WX052],13.7
7,CCOc1cc([C@@H](CS(C)(=O)=O)n2c(=O)n(C)c3cc(C(F)(F)F)ccc32)ccc1OC [WX053],26.4
8,CCOc1cc([C@@H](CS(C)(=O)=O)n2c(=O)[nH]c3cc(-c4ccccc4CC)ccc32)ccc1OC [WX019],< 0.5
9,CCOc1cc([C@@H](CS(C)(=O)=O)n2c(=O)n(C)c3cc(F)ccc32)ccc1OC [WX048],57.8
10,CCOc1cc([C@@H](CS(C)(=O)=O)n2c(=O)[nH]c3cc(C(F)(F)F)cc(F)c32)ccc1OC [WX006],25.7
11,CCOc1cc([C@@H](CS(C)(=O)=O)n2c(=O)n(CC(F)(F)F)c3c(Cl)cccc32)ccc1OC [WX062],54.9
12,CCOc1cc([C@@H](CS(C)(=O)=O)n2c(=O)[nH]c3cc(-c4ccccc4F)ccc32)ccc1OC [WX011],0.526
13,CCOc1cc([C@@H](CS(C)(=O)=O)n2c(=O)[nH]c3c(-c4cccc(F)c4)cccc32)ccc1OC [WX088],2.4
14,CCOc1cc([C@@H](CS(C)(=O)=O)n2c(=O)n(CC#N)c3cc(Cl)ccc32)ccc1OC [WX045],3.56
15,CCOc1cc([C@@H](CS(C)(=O)=O)n2c(=O)[nH]c3cc(-c4nccnc4C4CC4)ccc32)ccc1OC [WX030],1.31
16,CCOc1cc([C@@H](CS(C)(=O)=O)n2c(=O)n(CC3CC3)c3cc(Cl)ccc32)ccc1OC [WX040],7.54
17,CCOc1cc([C@@H](CS(C)(=O)=O)n2c(=O)[nH]c3cc(-c4ccccc4OCC)ccc32)ccc1OC [WX024],< 0.5
18,CCOc1cc([C@@H](CS(C)(=O)=O)n2c(=O)[nH]c3c(-c4ncc(F)cn4)cccc32)ccc1OC [WX096],7.3
19,CCOc1cc([C@@H](CS(C)(=O)=O)n2c(=O)[nH]c3cc(Cl)ccc32)ccc1OC [WX003],2.22
20,CCOc1cc([C@@H](CS(C)(=O)=O)n2c(=O)n(CC(F)F)c3c(Cl)cccc32)ccc1OC [WX061],39
21,CCOc1cc([C@@H](CS(C)(=O)=O)n2c(=O)n(CC(F)F)c3cc(C(F)(F)F)ccc32)ccc1OC [WX051],26.9
22,CCOc1cc(C(CS(C)(=O)=O)n2c(=O)oc3cc(Br)ccc32)ccc1OC (stereo not shown) [WX077],46.8
23,COc1ccc(C(CS(C)(=O)=O)n2c(=O)[nH]c3cc(-c4ccccc4F)ccc32)cc1 (stereo not shown) [WX076],21.8

row,Compound,IC50 [nM]
1,CCOc1cc([C@@H](CS(C)(=O)=O)n2c(=O)[nH]c3cc(C(=O)OC(C)C)ccc32)ccc1OC [WX032],2.05
2,CCOc1cc([C@@H](CS(C)(=O)=O)n2c(=O)[nH]c3cc(-c4ccccc4C(F)(F)F)ccc32)ccc1OC [WX017],< 0.5
3,CCOc1cc([C@@H](CS(C)(=O)=O)n2c(=O)[nH]c3c(Cc4ccccc4F)cccc32)ccc1OC [WX094],< 0.5
4,CCOc1cc([C@@H](CS(C)(=O)=O)n2c(=O)n(CC)c3cc(C(F)(F)F)ccc32)ccc1OC [WX054],13.2
5,CCOc1cc([C@@H](CS(C)(=O)=O)n2c(=O)n(C3CC3)c3cc(-c4ccccc4F)ccc32)ccc1OC [WX023],1.89
6,CCOc1cc([C@@H](CS(C)(=O)=O)n2c(=O)n(C)c3cc(F)cc(F)c32)ccc1OC [WX057],99.6
7,CCOc1cc([C@@H](CS(C)(=O)=O)n2c(=O)n(CCO)c3cc(F)cc(F)c32)ccc1OC [WX059],68.3
8,CCOc1cc([C@@H](CS(C)(=O)=O)n2c(=O)n(CC#N)c3cc(F)cc(F)c32)ccc1OC [WX058],8.46
9,CCOc1cc([C@@H](CS(C)(=O)=O)n2c(=O)[nH]c3cc(-c4ncccc4F)ccc32)ccc1OC [WX025],1.42
10,CCOc1cc([C@@H](CS(C)(=O)=O)n2c(=O)[nH]c3cc(-c4ccc(F)cc4)ccc32)ccc1OC [WX013],6.11
11,CCOC(=O)c1ccc2c(c1)n(C)c(=O)n2[C@H](CS(C)(=O)=O)c1ccc(OC)c(OCC)c1 [WX074],10.2
12,CCOc1cc([C@@H](CS(C)(=O)=O)n2c(=O)n(CC)c3cc(-c4ccccc4F)ccc32)ccc1OC [WX069],0.477
13,CCOc1cc([C@@H](CS(C)(=O)=O)n2c(=O)[nH]c3c(-c4cccs4)cccc32)ccc1OC [WX093],1.25
14,CCOc1cc([C@@H](CS(C)(=O)=O)n2c(=O)n(CC(F)(F)F)c3cc(F)ccc32)ccc1OC [WX047],44.9
15,CCOc1cc([C@@H](CS(C)(=O)=O)n2c(=O)n(CCO)c3cc(C(F)(F)F)ccc32)ccc1OC [WX056],4.28
16,CCOc1cc([C@@H](CS(C)(=O)=O)n2c(=O)[nH]c3cc(-c4ccccc4C#N)ccc32)ccc1OC [WX028],< 0.5
17,CCOc1cc([C@@H](CS(C)(=O)=O)n2c(=O)[nH]c3c(C4CC4)cccc32)ccc1OC [WX091],3.98
18,CCOc1cc([C@@H](CS(C)(=O)=O)n2c(=O)[nH]c3cc(-c4nccnc4C)ccc32)ccc1OC [WX026],8.44
19,CCOc1cc([C@@H](CS(C)(=O)=O)n2c(=O)[nH]c3c(Br)cccc32)ccc1OC [WX007],9.2
20,CCOC(=O)c1ccc2c(c1)[nH]c(=O)n2[C@H](CS(C)(=O)=O)c1ccc(OC)c(OCC)c1 [WX031],3.3
21,CCOc1cc([C@@H](CS(C)(=O)=O)n2c(=O)n(CC#N)c3cc(-c4ccccc4F)ccc32)ccc1OC [WX071],< 0.5
